Assay results published in publication PMC7822874, “Chemoprotective antimalarials identified through quantitative high-throughput screening of Plasmodium blood and liver stage parasites” (Scientific Reports, 2021).
Like-named read-outs stand apart in the source and are kept apart here.

How the values were obtained:
Assay type in all cases: cell-based, Plasmodium falciparum
Conditions in all cases: Plasmodium falciparum
[1] = tested on: P. falciparum Dd2 Cytb V259L; assay: SYBR Green ABS proliferation assay, NCGC00473217 selected clone F06
Procedure, shortened: (§1)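 Drug-selected Dd2 clones bearing the cytochrome b mutation were cultured at 37 °C under 5% CO2, 5% O2, 90% N2. Growth was read at 72 h by SYBR Green-I fluorescence, normalized to controls as percent response.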

[2] = tested on: P. falciparum Dd2 Cytb G131S; assay: SYBR Green ABS proliferation assay, NCGC00374598 selected clone C11
Procedure, shortened: as §1

[3] = tested on: P. falciparum Dd2 Cytb F123L; assay: SYBR Green ABS proliferation assay, NCGC00473217 selected clone G08
Experimental: (§2) As resistance selection studies implicated the parasite cytochrome bc1 complex in mediating reduced parasite susceptibility to both NCGC00473217 and NCGC00374598, we leveraged these drug-selected parasites to test for altered drug response to a panel of antimalarial compounds.
(§3) The P. falciparum parasite Dd2 line was cultured in vitro using standard conditions. […] Tissue culture flasks and assay plates were incubated at 37 °C under a gas mixture of 5% CO2, 5% O2 and 90% N2. […] Significant differences were assessed using two-sided Student’s t-tests. All HTS assays were stopped and read at 72 h. Percent response values represent relative growth as judged by SYBR Green-I fluorescence intensity values normalized to controls.
(§4) Fresh uninfected RBCs (0.5% hematocrit) were added on day 7 and media was changed every other day. […] Resistant parasites were maintained under drug media at a volume of 50 mL until a high parasitemia (> 5%) was achieved. Aliquots of the bulk resistant cultures were frozen in cryovials before cloning by limiting dilution in 96-well plates (seeded at 0.25 or 0.5 parasites/well)[70]. After 3 weeks of cloning, we screened for positive wells by flow cytometry with SYBR Green-stained cells. […] Parasites were harvested by saponin lysis at the trophozoite stage and genomic DNA was extracted using the QIAamp DNA Blood Midi Kit (Qiagen, Germantown, MD)[71].

[4] = tested on: P. falciparum Dd2 Cytb A122D; assay: SYBR Green ABS proliferation assay, NCGC00473217 selected clone F12
Experimental: as §2, §3, §4

[5] = DD2, cytochrome b mutant line, third value triple, c9, […], read-out: log AC50, mean (converted)
[6] = DD2, cytochrome b mutant line, second value triple, c6, […], read-out: log AC50, mean (converted)
[7] = DD2, cytochrome b mutant line, fifth value triple, c15, […], read-out: log AC50, mean (converted)
[8] = DD2, cytochrome b mutant line, fourth value triple, c12, […], read-out: log AC50, mean (converted)
[9] = DD2, […], averaged from three independent replicates, top concentration 29 µM, read-out: Average AC50 (Log[M]), NCGC00473217 clone F06 (Cytb V259L) (converted)
[10] = DD2, […], averaged from three independent replicates, top concentration 29 µM, read-out: Average AC50 (Log[M]), NCGC00374598 clone C11 (Cytb G131S) (converted)
[11] = DD2, […], averaged from three independent replicates, top concentration 29 µM, read-out: Average AC50 (Log[M]), NCGC00473217 clone G08 (Cytb F123L) (converted)
[12] = DD2, […], averaged from three independent replicates, top concentration 29 µM, read-out: Average AC50 (Log[M]), NCGC00473217 clone F12 (Cytb A122D) (converted)

SMILES | AC50 [1, 5] [M] | AC50 [2, 6] [M] | AC50 [3, 7] [M] | AC50 [4, 8] [M] | AC50 [1, 9] [M] | AC50 [2, 10] [M] | AC50 [3, 11] [M] | AC50 [4, 12] [M]
COc1ccc(-c2nc(C(C)C)nc3c2CCN(C(=O)Cc2cccc(Cl)c2)CC3)cc1 [NCGC00479508-01] | 1.74e-05 | 1.33e-05 | 1.28e-05 | 1.44e-05 | – | – | – | –
COc1ccc(-c2nc(C(C)C)nc3c2CCN(C(=O)c2ccccc2Cl)CC3)cc1 [NCGC00479503-01] | 1.58e-05 | 2.28e-06 | 1.23e-05 | 1.28e-05 | – | – | – | –
O=c1[nH]c(N2CCOCC2)nc2c1CCN(Cc1ccc(C(F)(F)F)cc1)CC2 [NCGC00440629-01] | 1.5e-05 | 6.43e-06 | 1.88e-06 | 9.08e-06 | – | – | – | –
CCc1nc2c(c(-c3ccc(O)cc3)n1)CCN(Cc1cccn1C)CC2 [NCGC00480312-01] | 1.74e-05 | 1.88e-05 | 1.14e-05 | 1.44e-05 | – | – | – | –
CC(C)c1nc2c(c(-c3ccc(O)cc3)n1)CCN(C(=O)c1cccc(Cl)c1)CC2 [NCGC00480331-01] | 1.81e-05 | 1.74e-05 | 1.19e-05 | 1.68e-05 | – | – | – | –
CCCN1C(CC(C)C)=N[S+](=O)([O-])c2cc(NC(=O)c3cccc(C(F)(F)F)c3)ccc21 [NCGC00531777-01] | 1.36e-06 | 7.1e-07 | 2.24e-09 | 7.52e-06 | – | – | – | –
COc1ccc(-c2nc(C3CC3)nc3c2CCN(Cc2ccc(F)cc2)CC3)cc1 [NCGC00374624-01] | 9.79e-06 | 8.73e-06 | 9.08e-06 | 1.1e-05 | – | – | – | –
COc1ccc(-c2nc(C3CC3)nc3c2CCN(S(=O)(=O)c2ccccc2)CC3)cc1 [NCGC00374642-01] | 1.61e-05 | 1.33e-05 | 1.61e-05 | 1.44e-05 | – | – | – | –
Cc1cc(CN2CCc3nc(C(C)C)nc(-c4ccc(Cl)cc4)c3CC2)no1 [NCGC00374612-01] | 1.38e-05 | 1.55e-05 | 9.79e-06 | 1.68e-05 | – | – | – | –
CCCN1C(COC)=N[S+](=O)([O-])c2cc(NC(=O)c3cccs3)ccc21 [NCGC00532347-01] | 8.93e-06 | 1.78e-06 | 7.96e-09 | 8.93e-06 | – | – | – | –
CCCN1C(CC(C)C)=N[S+](=O)([O-])c2cc(NC(=O)c3ccc(F)c(Br)c3)ccc21 [NCGC00531767-01] | 1.06e-06 | 2.08e-06 | 6.32e-06 | 8.61e-06 | – | – | – | –
CCCN1C(CC(C)C)=N[S+](=O)([O-])c2cc(NC(=O)c3cn(C)cn3)ccc21 [NCGC00521148-01] | – | – | – | – | 1.17e-05 | 2.67e-06 | 7.1e-06 | 1.12e-05
CCc1nc2c(c(-c3ccc(Cl)cc3)n1)CCN(Cc1ccc(NC(C)=O)cc1)CC2 [NCGC00476919-01] | 1.5e-05 | 1.28e-05 | 2.03e-06 | 1.14e-05 | – | – | – | –
CCCN1C(CC(C)C)=N[S+](=O)([O-])c2cc(NC(C)=O)ccc21 [NCGC00521093-01] | – | – | – | – | 8.93e-06 | 2e-05 | 7.96e-06 | 1.04e-05
CCCN1C(CC(C)C)=N[S+](=O)([O-])c2cc(NC(=O)c3cccc(OC)c3)ccc21 [NCGC00531773-01] | 7.67e-06 | 3.56e-06 | 1.06e-05 | 1e-05 | – | – | – | –
CCCN1C(CC(C)C)=N[S+](=O)([O-])c2cc(NC(=O)c3ccc(F)c(Cl)c3)ccc21 [NCGC00531769-01] | 3.7e-06 | 2.82e-06 | 3.99e-07 | 7.38e-06 | – | – | – | –
CCCN1C(CC(F)(F)F)=N[S+](=O)([O-])c2cc(NC(=O)c3cccs3)ccc21 [NCGC00532340-01] | 2e-06 | 6.32e-06 | 7.1e-06 | 7.1e-06 | – | – | – | –
COc1ccc(-c2nc(C(C)C)nc3c2CCN(S(=O)(=O)c2cccc(C(F)(F)F)c2)CC3)cc1 [NCGC00479522-01] | 1.28e-05 | 1.1e-05 | 1.14e-05 | 1.68e-05 | – | – | – | –
CCCN1C(Cc2ccccc2)=N[S+](=O)([O-])c2cc(NC(=O)c3cccs3)ccc21 [NCGC00532337-01] | 7.96e-07 | 3.05e-06 | 1e-05 | 7.1e-06 | – | – | – | –

SMILES | AC50 [1, 5] [M] | AC50 [2, 6] [M] | AC50 [3, 7] [M] | AC50 [4, 8] [M] | AC50 [1, 9] [M] | AC50 [2, 10] [M] | AC50 [3, 11] [M] | AC50 [4, 12] [M]
CCCN1C(CC(C)C)=N[S+](=O)([O-])c2cc(NC(=O)c3cccc(Cl)c3)ccc21 [NCGC00531770-01] | 3.56e-06 | 4.74e-06 | 4.48e-06 | 2.82e-06 | – | – | – | –
CC(C)c1nc2c(c(-c3ccc(Cl)cc3)n1)CCN(C(=O)c1ccc(C(F)(F)F)cc1)CC2 [NCGC00374584-01] | 7.5e-06 | 6.93e-06 | 8.41e-06 | 7.5e-06 | – | – | – | –
COc1ccc(-c2nc(C(C)C)nc3c2CCN(C(=O)Cc2ccc(F)cc2)CC3)cc1 [NCGC00479517-01] | 1.88e-05 | 1.5e-05 | 1.06e-05 | 1.68e-05 | – | – | – | –
CCCN1C(CC(C)C)=N[S+](=O)([O-])c2cc(NCc3ccccc3)ccc21 [NCGC00531800-01] | 1.12e-05 | 1e-05 | 1.42e-05 | 9.46e-06 | – | – | – | –
COc1ccc(-c2nc(C3CC3)nc3c2CCN(Cc2ccc(C#N)cc2)CC3)cc1 [NCGC00374656-01] | 1.14e-05 | 7.5e-06 | 8.09e-06 | 8.41e-06 | – | – | – | –
COc1ccc(-c2nc(C(C)C)nc3c2CCN(C(=O)c2cccc(Cl)c2)CC3)cc1 [NCGC00479504-01] | 1.68e-05 | 1.55e-05 | 1.19e-05 | 1.61e-05 | – | – | – | –
CCCN1C(CC(C)C)=N[S+](=O)([O-])c2cc(NC(=O)Cc3cccs3)ccc21 [NCGC00531815-01] | 7.67e-06 | 1e-05 | 5.64e-06 | 5.22e-06 | – | – | – | –
CCCN1C(CC(C)C)=N[S+](=O)([O-])c2cc(NC(=O)c3ccc(Cl)cc3)ccc21 [NCGC00531775-01] | 6.32e-07 | 2e-07 | 3.17e-06 | 2.24e-07 | – | – | – | –
CCCN1C(CC2CCOCC2)=N[S+](=O)([O-])c2cc(NC(=O)c3cccs3)ccc21 [NCGC00537663-01] | 4.66e-06 | 3.7e-06 | 3.56e-06 | 2.82e-06 | – | – | – | –
CCCN1C(CC2CCCCC2)=N[S+](=O)([O-])c2cc(NC(=O)c3ccc(F)cc3)ccc21 [NCGC00532335-01] | 5.32e-06 | 8.61e-07 | 2.82e-07 | 3.3e-06 | – | – | – | –
CCCN1C(CC2CCOCC2)=N[S+](=O)([O-])c2cc(NC(=O)c3ccc(F)cc3)ccc21 [NCGC00537661-01] | 5.02e-06 | 2e-07 | 4.84e-06 | 5.86e-06 | – | – | – | –
CCCN1C(Cc2ccccc2)=N[S+](=O)([O-])c2cc(NC(=O)c3ccc(F)cc3)ccc21 [NCGC00532338-01] | 7.67e-07 | 8.93e-08 | 3.56e-07 | 3.17e-06 | – | – | – | –
CCCN1C(CC2CCC2)=N[S+](=O)([O-])c2cc(NC(=O)c3cccs3)ccc21 [NCGC00537664-01] | 1.19e-06 | 4.66e-07 | 1.78e-06 | 1.36e-06 | – | – | – | –
CCCN1C(CC(C)C)=N[S+](=O)([O-])c2cc(NC(=O)c3ccc(Br)c(F)c3)ccc21 [NCGC00531761-01] | 3.36e-06 | 1.12e-06 | 7.96e-08 | 1e-06 | – | – | – | –
CCCN1C(CC(C)C)=N[S+](=O)([O-])c2cc(NC(=O)c3ccc4c(c3)OCCO4)ccc21 [NCGC00531778-01] | 5.22e-06 | 2.24e-07 | 1.31e-05 | 1.31e-05 | – | – | – | –
CCCN1C(CC(C)C)=N[S+](=O)([O-])c2cc(NC(=O)c3cccnn3)ccc21 [NCGC00521144-01] | – | – | – | – | 2.82e-06 | 2e-05 | 1.12e-05 | 2.67e-06
CCCN1C(CC(C)C)=N[S+](=O)([O-])c2cc(NCc3cccs3)ccc21 [NCGC00531814-01] | 1.78e-05 | 1.59e-05 | 1.59e-05 | 1.93e-05 | – | – | – | –
O=C(c1cccc(Cl)c1)N1CCc2nc(C3CC3)nc(-c3ccc(O)cc3)c2CC1 [NCGC00480367-01] | 2.66e-06 | 1.06e-05 | 1.28e-06 | 1.55e-05 | – | – | – | –
COc1ccc(CN2CCc3nc(C(C)C)nc(-c4ccc(O)cc4)c3CC2)cc1 [NCGC00480318-01] | 9.08e-06 | 5.11e-06 | 9.08e-06 | 7.78e-06 | – | – | – | –
